For 33 compounds, IC50 results are on record in patent US10428044B2, “3-amino-1,5,6,7-tetrahydro-4H-indol-4-ones” (Bayer Pharma Aktiengesellschaft, priority 2014, dated 2019).

The target in this experiment is (recombinant) catalytic domain of human Bub1 (amino acids 704-1085) (Homo sapiens (Human), UniProt O43683). Kind of experiment: Bub1 kinase assay (TR-FRET). It is filed as biochemical. As to conditions: ATP 10 μM final, peptide substrate 1 μM final, 60 min at 22° C., read-out: Biological Assay: Bub1 kinase assay median IC50. An outline of the steps: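 Readout was TR-FRET between a Eu-labeled antibody complex recognizing phosphoserine and streptavidin-XL665 on the biotinylated peptide, after EDTA stop and 1 h at 22° C. The kinase reaction ran for 60 min at 22° C. Values are means or medians of repeat tests, from 4-parameter fits normalized to enzyme-free and inhibitor-free controls.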
(recombinant) catalytic domain of human Bub1 (amino acids 704-1085), sequence (O43683 704-1085): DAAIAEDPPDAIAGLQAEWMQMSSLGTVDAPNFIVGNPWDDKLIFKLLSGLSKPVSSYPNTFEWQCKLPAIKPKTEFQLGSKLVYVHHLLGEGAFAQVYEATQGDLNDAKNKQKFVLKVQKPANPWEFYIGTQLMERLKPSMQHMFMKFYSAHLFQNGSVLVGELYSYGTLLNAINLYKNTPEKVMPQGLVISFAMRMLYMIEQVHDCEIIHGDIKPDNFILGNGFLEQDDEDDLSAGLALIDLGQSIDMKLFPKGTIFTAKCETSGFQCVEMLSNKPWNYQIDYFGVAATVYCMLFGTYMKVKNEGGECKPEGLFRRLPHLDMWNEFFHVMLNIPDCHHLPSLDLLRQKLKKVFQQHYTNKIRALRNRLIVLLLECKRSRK
Take `Cc1ncsc1COCC(=O)Nc1cc(-c2[nH]c3c(c2Nc2ccccc2)C(=O)CCC3)ccn1` [Example 496, 2-[(4-methyl-1,3-thiazol-5-yl)methoxy]-N-{4-[4-oxo-3-(phenylamino)-4,5,6,7-tetrahydro-1H-indol-2-yl]pyridin-2-yl}acetamide]: the half-inhibitory concentration (IC50) is 0.00646 µM.

Consider `CCc1ccc(Nc2c(-c3ccncc3)[nH]c3c2C(=O)CC(C)(C)C3)cc1` [Example 83, 3-[(4-ethylphenyl)amino]-6,6-dimethyl-2-(pyridin-4-yl)-1,5,6,7-tetrahydro-4H-indol-4-one], for which the concentration for half-maximal inhibition (IC50) was 0.293 µM.

`O=C1CC(C(F)(F)F)Cc2[nH]c(-c3ccncc3)c(Nc3ccccc3)c21` (single isomer, unassigned) [Example 441, 3-(phenylamino)-2-(pyridin-4-yl)-6-(trifluoromethyl)-1,5,6,7-tetrahydro-4H-indol-4-one]: the IC50 worked out at 0.00572 µM.

Take `CC(C)COCC(=O)Nc1cc(-c2[nH]c3c(c2Nc2ccccc2)C(=O)CCC3)ccn1` [Example 331, 2-(2-methylpropoxy)-N-{4-[4-oxo-3-(phenylamino)-4,5,6,7-tetrahydro-1H-indol-2-yl]pyridin-2-yl}acetamide]: the IC50 was determined as 0.013 µM.

As for `CC1(C)CC(=O)c2c([nH]c(-c3ccncc3)c2Nc2cccnc2)C1` [Example 63, 6,6-dimethyl-2-(pyridin-4-yl)-3-(pyridin-3-ylamino)-1,5,6,7-tetrahydro-4H-indol-4-one], the IC50 was 0.196 µM.

As to `Cn1cc(Nc2cc(-c3[nH]c4c(c3Nc3ccccc3)C(=O)CC(C)(C)C4)ccn2)cn1` [Example 205, 6,6-dimethyl-2-{2-[(1-methyl-1H-pyrazol-4-yl)amino]pyridin-4-yl}-3-(phenylamino)-1,5,6,7-tetrahydro-4H-indol-4-one], the IC50 is 0.0229 µM.

On to `CC1(C)CC(=O)c2c([nH]c(-c3ccncc3)c2Nc2ccc3sccc3c2)C1` [Example 69, 3-(1-benzothiophen-5-ylamino)-6,6-dimethyl-2-(pyridin-4-yl)-1,5,6,7-tetrahydro-4H-indol-4-one], for which the IC50 was found to be 0.0764 µM.

As to `CC(C)CNC(=O)Nc1cc(-c2[nH]c3c(c2Nc2ccccc2)C(=O)CCC3)ccn1` [Example 381, 1-(2-methylpropyl)-3-{4-[4-oxo-3-(phenylamino)-4,5,6,7-tetrahydro-1H-indol-2-yl]pyridin-2-yl}urea], the IC50 is 0.0944 µM.

With `CC(=O)Nc1cc(-c2[nH]c3c(c2Nc2ccccc2)C(=O)CC2(CC2)C3)ccn1` [Example 293, N-{4-[4′-oxo-3′-(phenylamino)-1′,4′,5′,7′-tetrahydrospiro[cyclopropane-1,6′-indol]-2′-yl]pyridin-2-yl}acetamide], the IC50 worked out at 0.0112 µM.

Take `CC1(C)CC(=O)c2c([nH]c(-c3ccncc3)c2Nc2cccc(C(=O)OC(C)(C)C)c2)C1` [Example 118, tert-butyl 3-{[6,6-dimethyl-4-oxo-2-(pyridin-4-yl)-4,5,6,7-tetrahydro-1H-indol-3-yl]amino}benzoate]: the IC50 worked out at 0.457 µM.

Turning to `COc1ccc(Nc2c(-c3ccncc3)[nH]c3c2C(=O)CC(C)(C)C3)cc1` [Example 59, 3-[(4-methoxyphenyl)amino]-6,6-dimethyl-2-(pyridin-4-yl)-1,5,6,7-tetrahydro-4H-indol-4-one], the IC50 was determined as 0.422 µM.

For the compound `COc1ccc(COCC(=O)Nc2cc(-c3[nH]c4c(c3Nc3ccccc3)C(=O)CCC4)ccn2)cc1` [Example 342, 2-[(4-methoxybenzyl)oxy]-N-{4-[4-oxo-3-(phenylamino)-4,5,6,7-tetrahydro-1H-indol-2-yl]pyridin-2-yl}acetamide], the IC50 stood at 0.00712 µM.

`O=C1CCCc2[nH]c(-c3ccnc(NC(=O)C4CC4c4ccccc4)c3)c(Nc3ccccc3)c21` (stereo not drawn) [Example 239, N-{4-[4-oxo-3-(phenylamino)-4,5,6,7-tetrahydro-1H-indol-2-yl]pyridin-2-yl}-2-phenylcyclopropanecarboxamide]: the IC50 came out at 0.0459 µM.

Consider `Cn1cc(NC(=O)Nc2cc(-c3[nH]c4c(c3Nc3ccccc3)C(=O)CC(C)(C)C4)ccn2)cn1` [Example 391, 1-{4-[6,6-dimethyl-4-oxo-3-(phenylamino)-4,5,6,7-tetrahydro-1H-indol-2-yl]pyridin-2-yl}-3-(1-methyl-1H-pyrazol-4-yl)urea], for which the 50% inhibitory concentration (IC50) was 0.00452 µM.

Turning to `CC(=O)Nc1cc(-c2[nH]c3c(c2Nc2ccccc2)C(=O)CC(C)(C)C3)ccn1` [Example 36, N-{4-[6,6-dimethyl-4-oxo-3-(phenylamino)-4,5,6,7-tetrahydro-1H-indol-2-yl]pyridin-2-yl}acetamide], the IC50 turned out to be 0.0264 µM.

`O=C1CC(c2ccccc2)Cc2[nH]c(-c3ccncc3)c(Nc3ccccc3)c21` (stereo not drawn) [Example 8, 6-Phenyl-3-phenylamino-2-(pyridin-4-yl)-1,5,6,7-tetrahydroindol-4-one]: the IC50 was 0.0221 µM.

In the case of `CC1(C)CC(=O)c2c([nH]c(-c3ccncc3)c2Nc2ccnc3ccccc23)C1` [Example 75, 6,6-dimethyl-2-(pyridin-4-yl)-3-(quinolin-4-ylamino)-1,5,6,7-tetrahydro-4H-indol-4-one], the IC50 was 14.1 µM.

As to `O=C1CCCc2[nH]c(-c3ccnc(NC(=O)C4CC4(F)F)c3)c(Nc3ccccc3)c21` (racemic) [Example 260, 2,2-difluoro-N-{4-[4-oxo-3-(phenylamino)-4,5,6,7-tetrahydro-1H-indol-2-yl]pyridin-2-yl}cyclopropanecarboxamide], the IC50 came out at 0.0236 µM.

On to `Cc1cc(Nc2c(-c3ccncc3)[nH]c3c2C(=O)CC(C)(C)C3)ccc1F` [Example 81, 3-[(4-fluoro-3-methylphenyl)amino]-6,6-dimethyl-2-(pyridin-4-yl)-1,5,6,7-tetrahydro-4H-indol-4-one], for which the IC50 worked out at 0.0443 µM.

With `CN(C)c1ccc(Nc2c(-c3ccncc3)[nH]c3c2C(=O)CC(C)(C)C3)cc1` [Example 435, 3-{[4-(dimethylamino)phenyl]amino}-6,6-dimethyl-2-(pyridin-4-yl)-1,5,6,7-tetrahydro-4H-indol-4-one], the IC50 is 1.38 µM.

Consider `CC1(C)CC(=O)c2c([nH]c(-c3ccncc3OCC(F)(F)F)c2Nc2ccccc2)C1` [Example 412, 6,6-dimethyl-3-(phenylamino)-2-[3-(2,2,2-trifluoroethoxy)pyridin-4-yl]-1,5,6,7-tetrahydro-4H-indol-4-one], for which the half-inhibitory concentration (IC50) worked out at 0.0284 µM.

In the case of `CC(C)Nc1cnccc1-c1[nH]c2c(c1Nc1ccccc1)C(=O)CCC2` [Example 376, 3-(phenylamino)-2-[3-(propan-2-ylamino)pyridin-4-yl]-1,5,6,7-tetrahydro-4H-indol-4-one], the IC50 was determined as 2.51 µM.

With `CC1(C)CC(=O)c2c([nH]c(-c3ccnc(NCCCCc4ccccc4)c3)c2Nc2ccccc2)C1` [Example 507, 6,6-dimethyl-3-(phenylamino)-2-{2-[(4-phenylbutyl)amino]pyridin-4-yl}-1,5,6,7-tetrahydro-4H-indol-4-one], the IC50 worked out at 0.959 µM.

Take `O=C(COc1ccccn1)Nc1cc(-c2[nH]c3c(c2Nc2ccccc2)C(=O)CCC3)ccn1` [Example 347, N-{4-[4-oxo-3-(phenylamino)-4,5,6,7-tetrahydro-1H-indol-2-yl]pyridin-2-yl}-2-(pyridin-2-yloxy)acetamide]: the IC50 was 0.101 µM.

With `CC1(C)CC(=O)c2c([nH]c(-c3ccncc3)c2Nc2cccc(C3OCCO3)c2)C1` [Example 119, 3-{[3-(1,3-dioxolan-2-yl)phenyl]amino}-6,6-dimethyl-2-(pyridin-4-yl)-1,5,6,7-tetrahydro-4H-indol-4-one], the IC50 came to 2.34 µM.

`CC1(C)CC(=O)c2c([nH]c(-c3ccncc3)c2Nc2ccc(F)cc2CO)C1` [Example 485, 3-{[4-fluoro-2-(hydroxymethyl)phenyl]amino}-6,6-dimethyl-2-(pyridin-4-yl)-1,5,6,7-tetrahydro-4H-indol-4-one]: the concentration for half-maximal inhibition (IC50) is 0.00584 µM.

As to `CC1(C)CC(=O)c2c([nH]c(-c3ccncc3)c2Nc2cccc3ccccc23)C1` [Example 157, 6,6-dimethyl-3-(naphthalen-1-ylamino)-2-(pyridin-4-yl)-1,5,6,7-tetrahydro-4H-indol-4-one], the IC50 stood at 0.764 µM.

As to `CC1(C)CC(=O)c2c([nH]c(-c3ccncc3)c2Nc2cccc(Cl)c2F)C1` [Example 94, 3-[(3-chloro-2-fluorophenyl)amino]-6,6-dimethyl-2-(pyridin-4-yl)-1,5,6,7-tetrahydro-4H-indol-4-one], the IC50 turned out to be 0.114 µM.

Turning to `CC1(C)CC(=O)c2c([nH]c(-c3ccnc(NC(=O)C(F)F)c3)c2Nc2ccccc2)C1` [Example 166, N-{4-[6,6-dimethyl-4-oxo-3-(phenylamino)-4,5,6,7-tetrahydro-1H-indol-2-yl]pyridin-2-yl}-2,2-difluoroacetamide], the IC50 worked out at 1.69 µM.

Take `COC(=O)Nc1cc(-c2[nH]c3c(c2Nc2cccc(F)c2)C(=O)CCC3)ccn1` [Example 312, methyl (4-{3-[(3-fluorophenyl)amino]-4-oxo-4,5,6,7-tetrahydro-1H-indol-2-yl}pyridin-2-yl)carbamate]: the IC50 was 0.0199 µM.

As for `CC1(C)CC(=O)c2c([nH]c(-c3ccncc3)c2Nc2ccccc2-c2ccccc2)C1` [Example 160, 3-(biphenyl-2-ylamino)-6,6-dimethyl-2-(pyridin-4-yl)-1,5,6,7-tetrahydro-4H-indol-4-one], the IC50 is 0.204 µM.

`O=C1CCCc2[nH]c(-c3ccnc(NCC4CC4)c3)c(Nc3ccccc3)c21` [Example 368, 2-{2-[(cyclopropylmethyl)amino]pyridin-4-yl}-3-(phenylamino)-1,5,6,7-tetrahydro-4H-indol-4-one]: the IC50 was found to be 0.622 µM.

Consider `O=C(CCCc1ccccc1)Nc1cc(-c2[nH]c3c(c2Nc2ccccc2)C(=O)CCC3)ccn1` [Example 236, N-{4-[4-oxo-3-(phenylamino)-4,5,6,7-tetrahydro-1H-indol-2-yl]pyridin-2-yl}-4-phenylbutanamide], for which the IC50 came out at 0.00826 µM.

The term IC50 denotes the concentration that inhibits the measured activity by half.
